Paper PMC11961695 (Annals of oncology : official journal of the European …, 2022)
“Also recorded” adds a separate entry of the source. Read-outs that look alike come from different tables or passages of the source.

Legend:
[1] = test system: locally advanced or metastatic cholangiocarcinoma; conditions: cited from earlier work
[2] = test system: refractory advanced malignancies with and without FGF/FGFR alterations; test: FIGHT-101 tumor response per investigator
serum phosphate = test: Serum phosphate pharmacodynamics and Emax exposure-response model; conditions: in vivo
[3] = FIGHT-101 safety and tolerability
[4] = FIGHT-101 clinical pharmacokinetics
[5] = FIGHT-202, FGFR2 fusions or rearrangements
[6] = cholangiocarcinoma with FGFR2 fusions or rearrangements (13 patients)
[7] = all treated patients, any grade

In the case of `CCN1C(=O)N(c2c(F)c(OC)cc(OC)c2F)Cc2cnc3[nH]c(CN4CCOCC4)cc3c21` [pemigatinib], the Disease control rate [1, 5] is given as 82%, the “Estimated median OS” value [1, 5] is given as 17.5 months and the ORR [1, 5] is given as 35.5%. The Disease control rate ([1]; FIGHT-202, no FGF/FGFR alterations) was 22%, the Disease control rate ([1]; FIGHT-202, other FGF/FGFR alterations) was 40% and the Stable disease ([2]; FGF amplification) was 20%. For the same compound, the Stable disease ([2]; FGFR amplification) was 26.9%, the Stable disease ([2]; FGFR fusions or rearrangements) was 50% and the “Median PFS” value ([2]; FGFR fusions or rearrangements (n = 20)) was 5.7 months. For the same compound, the Stable disease ([2]; FGFR mutations) was 23.1%, the “Median PFS” value ([2]; FGFR mutations (n = 13)) was 5.0 months and the “Time to disease progression, individual patient” value ([2]; adenoid cystic carcinoma of the head and neck, 9 mg QD (CD)) was 20.5 months. The “Time on treatment to PR, individual patient” value ([2]; adenoid cystic carcinoma of the head and neck, 9 mg QD (CD), no FGF/FGFR alterations) was 6.0 months, the Disease progression ([2]; all patients (N = 128)) was 38.3% and the “Median PFS” value ([2]; all patients (N = 128)) was 2.8 months. The Partial response ([2]; all patients (N = 128)) was 9.4%, the “Partial responses achieved, number” value ([2]; all patients (N = 128)) was 12 and the Stable disease ([2]; all patients (N = 128)) was 31.3%. For the same compound, the “Median duration of response” value ([2]; all responders (n = 12)) was 7.3 months, the Partial response [2, 6] was 23.1% and the Stable disease [2, 6] was 61.5%. The “Duration of response, individual patient” value ([2]; cholangiocarcinoma, FGFR2-CCDC6 fusion) was 11.3 months, the “Time on treatment to PR, individual patient” value ([2]; non-small-cell lung cancer, 9 mg QD (CD), FGF/FGFR status unknown) was 6.2 months and the “Duration of response, individual patient” value ([2]; non-small-cell lung cancer, 9 mg QD (CD), ongoing at database lock) was 29.9 months. For the same compound, the “Duration of response, individual patient” value ([2]; pancreatic cancer, FGFR2-USP33 fusion) was 10.7 months, the Stable disease ([2]; patients with FGF/FGFR alterations) was 30.4% and the ORR ([2]; patients with FGFR fusions or rearrangements) was 25.0%. For the same compound, the ORR ([2]; patients with FGFR mutations) was 23.1%, the “Best median percentage change in target lesion size” value ([2]; patients with SD and FGF/FGFR alterations (n = 24)) was −8.0% and the “Median PFS” value ([2]; positive for FGF/FGFR alterations (n = 79)) was 3.0 months. The Pharmacologically active doses (serum phosphate) was ≥ 4 mg, the Dose-limiting toxicities ([3]; 1–20 mg QD, ID or CD, cycle 1) was “No dose-limiting toxicities were reported; also recorded: No DLTs were reported in any dose cohort; also recorded: No DLTs were encountered” and the “Clinically notable TEAEs” value ([3]; CD) was 86.2%. The “Dose interruptions due to TEAEs” value ([3]; CD) was 74.1%, the “Dose reductions due to TEAEs” value ([3]; CD) was 17.2% and the “Fatigue, grade ≥3 TEAE” value ([3]; CD) was 15.5%. For the same compound, the “Grade ≥3 TEAEs” value ([3]; CD) was 75.9%, the “Grade ≥3 hyponatremia” value ([3]; CD) was 10.3% and the “Grade ≥3 stomatitis” value ([3]; CD) was 17.2%. For the same compound, the “Hyperphosphatemia, any-cause TEAE” value ([3]; CD) was 82.8%, the Hypophosphatemia events ([3]; CD) was 12.1% and the “Treatment discontinuations due to TEAEs” value ([3]; CD) was 12.1%. For the same compound, the “Clinically notable TEAEs” value ([3]; ID) was 77.1%, the “Dose interruptions due to TEAEs” value ([3]; ID) was 32.9% and the “Dose reductions due to TEAEs” value ([3]; ID) was 5.7%. For the same compound, the “Fatigue, grade ≥3 TEAE” value ([3]; ID) was 5.7%, the “Grade ≥3 TEAEs” value ([3]; ID) was 50.0% and the “Grade ≥3 hyponatremia” value ([3]; ID) was 7.1%. For the same compound, the “Grade ≥3 stomatitis” value ([3]; ID) was 1.4%, the “Hyperphosphatemia, any-cause TEAE” value ([3]; ID) was 68.6% and the Hypophosphatemia events ([3]; ID) was 18.6%. The “Treatment discontinuations due to TEAEs” value ([3]; ID) was 8.6%, the “TEAEs of dry eye” value ([3]; all patients) was 23.4% and the “TEAEs of eyelash changes” value ([3]; all patients) was 13.3%. For the same compound, the “TEAEs of serous retinal detachment” value ([3]; all patients) was “no TEAEs of serous retinal detachment; also recorded: no serous retinal detachment events were reported”, the “TEAEs of vision blurred” value ([3]; all patients) was 16.4% and the “TEAEs of vitreous detachment” value ([3]; all patients) was 1.6%. The “Clinically notable TEAEs” value ([3]; all treated patients) was 81.3%, the “Dose interruption due to hypophosphatemia” value ([3]; all treated patients) was 1.6% and the “Dose interruption due to nail toxicities” value ([3]; all treated patients) was 7.8%. For the same compound, the “Dose interruption for hyperphosphatemia” value ([3]; all treated patients) was 9.4%, the “Dose reduction due to nail toxicities” value ([3]; all treated patients) was 0.8% and the “Dose reduction for hyperphosphatemia” value ([3]; all treated patients) was 1.6%. For the same compound, the “Dose reductions due to hypophosphatemia” value ([3]; all treated patients) was “none required dose reductions”, the “Fatigue, grade ≥3 TEAE” value ([3]; all treated patients) was 10.2% and the “Hyperphosphatemia requiring dose interruption” value ([3]; all treated patients) was 12 n. The “Hyperphosphatemia, grade ≥3” value ([3]; all treated patients) was 2.3%, the Nail discoloration ([3]; all treated patients) was 13.3% and the Onycholysis ([3]; all treated patients) was 14.8%. For the same compound, the Paronychia ([3]; all treated patients) was 10.2%, the “Patients with TEAE-related treatment discontinuation” value ([3]; all treated patients) was 10.2% and the “Patients with a TEAE” value ([3]; all treated patients) was 99.2%. For the same compound, the “Patients with dose interruption due to TEAEs” value ([3]; all treated patients) was 51.6%, the “Patients with dose reduction due to TEAEs” value ([3]; all treated patients) was 10.9% and the “Treatment-related TEAE” value ([3]; all treated patients) was 90.6%. The “Hyperphosphatemia, any-cause TEAE” value ([3]; all treated patients (N = 128), any grade) was 75%, the “Stomatitis requiring dose reduction” value ([3]; all treated patients (all CD)) was 4 n and the Pneumonia requiring discontinuation ([3]; all treated patients (both ID)) was 2 n. For the same compound, the “Small intestinal obstruction requiring discontinuation” value ([3]; all treated patients (both ID)) was 2 n, the “Hyperphosphatemia, treatment-related TEAE” value [3, 7] was 73.4% and the Hypophosphatemia events [3, 7] was 15.6%. For the same compound, the Nail toxicities [3, 7] was 32.0%, the “Hyperphosphatemia, treatment-related TEAE” value ([3]; all treated patients, grade ≥3) was 1.6% and the Hypophosphatemia events ([3]; all treated patients, grade ≥3) was 5.5%. For the same compound, the Nail toxicities ([3]; all treated patients, grade ≥3) was 3.1%, the “Treatment discontinuations resulting from clinically notable TEAEs” value ([3]; grade 3 paronychia (20 mg CD), grade 2 trichiasis (13.5 mg CD)) was “two” and the “Permanent treatment discontinuation due to hyperphosphatemia” value ([3]; in vivo) was “None of the hyperphosphatemia events resulted in permanent treatment discontinuation”. For the same compound, the “Relation of deaths due to TEAEs to treatment” value ([3]; in vivo) was “None of these deaths were considered treatment-related”, the Maximum tolerated dose ([3]; monotherapy, 1–20 mg QD) was “not reached” and the “Increase in average per-cycle exposure, CD versus ID regimen” value ([4]; 13.5 mg QD) was 50%. For the same compound, the “Dose proportionality of steady-state Cmax and AUC0–24” value ([4]; 1–20 mg QD) was “dose-proportional increases”, the “Effect of a high-fat and high-calorie meal on pharmacokinetics” value ([4]; human, in vivo) was “modest effects on pemigatinib pharmacokinetics that were not considered clinically meaningful” and the half-life ([4]; human, in vivo, Steady-state geometric mean terminal-phase disposition half-life, doses ≥6 mg QD) was 12.1 to 15.4 h.
